From PubChem BioAssay (NCI)
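96-well plates; 48 h exposure; 5 concentrations. Endpoints by linear interpolation between flanking doses. Not reached: highest tested concentration assigned. GI50 is the concentration that inhibits growth by half. TGI: total growth inhibition.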

Experiments:
Test in all cases: DTP human tumour cell line panel, 48 h
CCRF-CEM leukemia = tested on: CCRF-CEM leukemia
SF-295 CNS = tested on: SF-295 CNS
HT29 colon = tested on: HT29 colon
786-0 renal = tested on: 786-0 renal
SK-OV-3 ovarian = tested on: SK-OV-3 ovarian
MALME-3M melanoma = tested on: MALME-3M melanoma
M14 melanoma = tested on: M14 melanoma
BT-549 breast = tested on: BT-549 breast
MOLT-4 leukemia = tested on: MOLT-4 leukemia
KM12 colon = tested on: KM12 colon
UO-31 renal = tested on: UO-31 renal
OVCAR-5 ovarian = tested on: OVCAR-5 ovarian
SK-MEL-28 melanoma = tested on: SK-MEL-28 melanoma
HOP-62 NSCLC = tested on: HOP-62 NSCLC
RXF 393 renal = tested on: RXF 393 renal
K-562 leukemia = tested on: K-562 leukemia
NCI-H226 lung = tested on: NCI-H226 lung
COLO 205 colon = tested on: COLO 205 colon
PC-3 prostate = tested on: PC-3 prostate
SK-MEL-2 melanoma = tested on: SK-MEL-2 melanoma
HS 578T breast = tested on: HS 578T breast
DU-145 prostate = tested on: DU-145 prostate
NCI/ADR-RES ovarian = tested on: NCI/ADR-RES ovarian
SF-539 CNS = tested on: SF-539 CNS
T-47D breast = tested on: T-47D breast
NCI-H23 lung = tested on: NCI-H23 lung
MDA-MB-435 = tested on: MDA-MB-435
TK-10 renal = tested on: TK-10 renal
SF-268 CNS = tested on: SF-268 CNS
ACHN renal = tested on: ACHN renal
MDA-MB-231 breast = tested on: MDA-MB-231 breast
HOP-92 NSCLC = tested on: HOP-92 NSCLC
UACC-257 melanoma = tested on: UACC-257 melanoma
SN12C renal = tested on: SN12C renal
HL-60(TB) leukemia = tested on: HL-60(TB) leukemia
HCC-2998 colon = tested on: HCC-2998 colon
NCI-H460 lung = tested on: NCI-H460 lung
CAKI-1 renal = tested on: CAKI-1 renal
HCT-15 colon = tested on: HCT-15 colon
RPMI-8226 leukemia = tested on: RPMI-8226 leukemia
OVCAR-8 ovarian = tested on: OVCAR-8 ovarian
IGROV1 ovarian = tested on: IGROV1 ovarian
SW-620 colon = tested on: SW-620 colon
NCI-H522 lung = tested on: NCI-H522 lung
EKVX NSCLC = tested on: EKVX NSCLC
SK-MEL-5 melanoma = tested on: SK-MEL-5 melanoma
A549 NSCLC = tested on: A549 NSCLC
MCF7 breast = tested on: MCF7 breast
UACC-62 melanoma = tested on: UACC-62 melanoma
SNB-75 CNS = tested on: SNB-75 CNS
SNB-19 CNS = tested on: SNB-19 CNS
OVCAR-4 ovarian = tested on: OVCAR-4 ovarian
A498 renal = tested on: A498 renal

Which results are given for `NCCN1CCN(c2nc(-c3ccccc3)nc3nc(-c4ccccc4)oc23)CC1`?
GI50 (CCRF-CEM leukemia): 919 nM; TGI (CCRF-CEM leukemia): 3290 nM; GI50 (SF-295 CNS): 1890 nM; TGI (SF-295 CNS): 3600 nM; GI50 (HT29 colon): 1970 nM; TGI (HT29 colon): 4000 nM; GI50 (786-0 renal): 1770 nM; TGI (786-0 renal): 3640 nM; GI50 (SK-OV-3 ovarian): 1910 nM; TGI (SK-OV-3 ovarian): 3690 nM; GI50 (MALME-3M melanoma): 1750 nM; TGI (MALME-3M melanoma): 3390 nM; GI50 (M14 melanoma): 2040 nM; TGI (M14 melanoma): 3720 nM; GI50 (BT-549 breast): 1680 nM; TGI (BT-549 breast): 3310 nM; GI50 (MOLT-4 leukemia): 2080 nM; TGI (MOLT-4 leukemia): 4620 nM; GI50 (KM12 colon): 1860 nM; TGI (KM12 colon): 3470 nM; GI50 (UO-31 renal): 1460 nM; TGI (UO-31 renal): 3010 nM; GI50 (OVCAR-5 ovarian): 1770 nM; TGI (OVCAR-5 ovarian): 3260 nM; GI50 (SK-MEL-28 melanoma): 1790 nM; TGI (SK-MEL-28 melanoma): 3350 nM; GI50 (HOP-62 NSCLC): 2030 nM; TGI (HOP-62 NSCLC): 4550 nM; GI50 (RXF 393 renal): 1630 nM; TGI (RXF 393 renal): 3410 nM; GI50 (K-562 leukemia): 287 nM; TGI (K-562 leukemia): 1010 nM; GI50 (NCI-H226 lung): 1970 nM; TGI (NCI-H226 lung): 4130 nM; GI50 (COLO 205 colon): 1930 nM; TGI (COLO 205 colon): 3920 nM; GI50 (PC-3 prostate): 1590 nM; TGI (PC-3 prostate): 3060 nM; GI50 (SK-MEL-2 melanoma): 22300 nM; TGI (SK-MEL-2 melanoma): 47700 nM; GI50 (HS 578T breast): 2220 nM; TGI (HS 578T breast): 5060 nM; GI50 (DU-145 prostate): 1920 nM; TGI (DU-145 prostate): 3450 nM; GI50 (NCI/ADR-RES ovarian): 1900 nM; TGI (NCI/ADR-RES ovarian): 3970 nM; GI50 (SF-539 CNS): 1790 nM; TGI (SF-539 CNS): 3250 nM; GI50 (T-47D breast): 2050 nM; TGI (T-47D breast): 4660 nM; GI50 (NCI-H23 lung): 1690 nM; TGI (NCI-H23 lung): 3210 nM; GI50 (MDA-MB-435): 1820 nM; TGI (MDA-MB-435): 3320 nM; GI50 (TK-10 renal): 1650 nM; TGI (TK-10 renal): 3390 nM; GI50 (SF-268 CNS): 1850 nM; TGI (SF-268 CNS): 3960 nM; GI50 (ACHN renal): 1810 nM; TGI (ACHN renal): 3290 nM; GI50 (MDA-MB-231 breast): 1830 nM; TGI (MDA-MB-231 breast): 3560 nM; GI50 (HOP-92 NSCLC): 1350 nM; TGI (HOP-92 NSCLC): 2870 nM; GI50 (UACC-257 melanoma): 3340 nM; TGI (UACC-257 melanoma): 13400 nM; GI50 (SN12C renal): 1800 nM; TGI (SN12C renal): 3500 nM; GI50 (HL-60(TB) leukemia): 1860 nM; TGI (HL-60(TB) leukemia): 4480 nM; GI50 (HCC-2998 colon): 1630 nM; TGI (HCC-2998 colon): 3060 nM; GI50 (NCI-H460 lung): 1940 nM; TGI (NCI-H460 lung): 3690 nM; GI50 (CAKI-1 renal): 1640 nM; TGI (CAKI-1 renal): 3170 nM; GI50 (HCT-15 colon): 1490 nM; TGI (HCT-15 colon): 2970 nM; GI50 (RPMI-8226 leukemia): 1880 nM; TGI (RPMI-8226 leukemia): 4620 nM; GI50 (OVCAR-8 ovarian): 1980 nM; TGI (OVCAR-8 ovarian): 4460 nM; GI50 (IGROV1 ovarian): 1800 nM; TGI (IGROV1 ovarian): 3490 nM; GI50 (SW-620 colon): 1710 nM; TGI (SW-620 colon): 3300 nM; GI50 (NCI-H522 lung): 2160 nM; TGI (NCI-H522 lung): 5050 nM; GI50 (EKVX NSCLC): 1670 nM; TGI (EKVX NSCLC): 3360 nM; GI50 (SK-MEL-5 melanoma): 1740 nM; TGI (SK-MEL-5 melanoma): 3180 nM; GI50 (A549 NSCLC): 1850 nM; TGI (A549 NSCLC): 3910 nM; GI50 (MCF7 breast): 1310 nM; TGI (MCF7 breast): 2860 nM; GI50 (UACC-62 melanoma): 1850 nM; TGI (UACC-62 melanoma): 3470 nM; GI50 (SNB-75 CNS): 1300 nM; TGI (SNB-75 CNS): 2600 nM; GI50 (SNB-19 CNS): 1820 nM; TGI (SNB-19 CNS): 3460 nM; GI50 (OVCAR-4 ovarian): 2150 nM; TGI (OVCAR-4 ovarian): 4420 nM; GI50 (A498 renal): 1690 nM; TGI (A498 renal): 3310 nM
